Reference: PubChem BioAssay (NCI)
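A five-concentration, 48-hour dose response in 96-well plates underlies each endpoint, interpolated linearly between surrounding concentrations. GI50: concentration for 50% inhibition of growth. The concentration for full growth arrest is given as TGI.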

Key:
Assay in all cases: DTP human tumour cell line panel, 48 h
OVCAR-4 ovarian = system: OVCAR-4 ovarian
SK-MEL-2 melanoma = system: SK-MEL-2 melanoma
HOP-62 NSCLC = system: HOP-62 NSCLC
OVCAR-5 ovarian = system: OVCAR-5 ovarian
CAKI-1 renal = system: CAKI-1 renal
SF-295 CNS = system: SF-295 CNS
NCI-H460 lung = system: NCI-H460 lung
SNB-19 CNS = system: SNB-19 CNS
EKVX NSCLC = system: EKVX NSCLC
KM12 colon = system: KM12 colon
TK-10 renal = system: TK-10 renal
U251 CNS = system: U251 CNS
M14 melanoma = system: M14 melanoma
UACC-257 melanoma = system: UACC-257 melanoma
PC-3 prostate = system: PC-3 prostate
SK-MEL-28 melanoma = system: SK-MEL-28 melanoma
COLO 205 colon = system: COLO 205 colon
LOX IMVI melanoma = system: LOX IMVI melanoma
HT29 colon = system: HT29 colon
A549 NSCLC = system: A549 NSCLC
HCT-15 colon = system: HCT-15 colon
OVCAR-8 ovarian = system: OVCAR-8 ovarian
ACHN renal = system: ACHN renal
NCI/ADR-RES ovarian = system: NCI/ADR-RES ovarian
RXF 393 renal = system: RXF 393 renal
MDA-MB-435 = system: MDA-MB-435
OVCAR-3 ovarian = system: OVCAR-3 ovarian
HCC-2998 colon = system: HCC-2998 colon
NCI-H23 lung = system: NCI-H23 lung
SR leukemia = system: SR leukemia
BT-549 breast = system: BT-549 breast
SNB-75 CNS = system: SNB-75 CNS
CCRF-CEM leukemia = system: CCRF-CEM leukemia
SN12C renal = system: SN12C renal
NCI-H226 lung = system: NCI-H226 lung
UO-31 renal = system: UO-31 renal
SF-539 CNS = system: SF-539 CNS
UACC-62 melanoma = system: UACC-62 melanoma
MDA-MB-231 breast = system: MDA-MB-231 breast
HOP-92 NSCLC = system: HOP-92 NSCLC
A498 renal = system: A498 renal
T-47D breast = system: T-47D breast
K-562 leukemia = system: K-562 leukemia
DU-145 prostate = system: DU-145 prostate
MOLT-4 leukemia = system: MOLT-4 leukemia
SW-620 colon = system: SW-620 colon
HS 578T breast = system: HS 578T breast
MALME-3M melanoma = system: MALME-3M melanoma
RPMI-8226 leukemia = system: RPMI-8226 leukemia
IGROV1 ovarian = system: IGROV1 ovarian
SK-MEL-5 melanoma = system: SK-MEL-5 melanoma
HL-60(TB) leukemia = system: HL-60(TB) leukemia
SF-268 CNS = system: SF-268 CNS
NCI-H522 lung = system: NCI-H522 lung
786-0 renal = system: 786-0 renal
HCT-116 colon = system: HCT-116 colon
SK-OV-3 ovarian = system: SK-OV-3 ovarian
MCF7 breast = system: MCF7 breast

CCc1cccc(NC(=O)Nc2ccc(Oc3ccc4nc(NC(=O)OC)[nH]c4c3)cc2)c1
GI50 (OVCAR-4 ovarian): 4.45 µM
TGI (OVCAR-4 ovarian): 9.89 µM
GI50 (SK-MEL-2 melanoma): 2.94 µM
TGI (SK-MEL-2 melanoma): 12.3 µM
GI50 (HOP-62 NSCLC): 3.1 µM
TGI (HOP-62 NSCLC): 11 µM
GI50 (OVCAR-5 ovarian): 15 µM
TGI (OVCAR-5 ovarian): > 25 µM
GI50 (CAKI-1 renal): > 15.4 µM
TGI (CAKI-1 renal): > 25 µM
GI50 (SF-295 CNS): 3.4 µM
TGI (SF-295 CNS): > 20.4 µM
GI50 (NCI-H460 lung): 3.4 µM
TGI (NCI-H460 lung): 12.4 µM
GI50 (SNB-19 CNS): 10.1 µM
TGI (SNB-19 CNS): > 25 µM
GI50 (EKVX NSCLC): > 23.9 µM
TGI (EKVX NSCLC): > 25 µM
GI50 (KM12 colon): 0.0985 µM
TGI (KM12 colon): 4.94 µM
GI50 (TK-10 renal): 6.61 µM
TGI (TK-10 renal): > 19.8 µM
GI50 (U251 CNS): 4.85 µM
TGI (U251 CNS): > 15.4 µM
GI50 (M14 melanoma): 3.13 µM
TGI (M14 melanoma): 12.6 µM
GI50 (UACC-257 melanoma): 3.58 µM
TGI (UACC-257 melanoma): > 22.3 µM
GI50 (PC-3 prostate): 4.9 µM
TGI (PC-3 prostate): 19.6 µM
GI50 (SK-MEL-28 melanoma): 3.52 µM
TGI (SK-MEL-28 melanoma): 9.49 µM
GI50 (COLO 205 colon): 6.8 µM
TGI (COLO 205 colon): > 17.9 µM
GI50 (LOX IMVI melanoma): 3.77 µM
TGI (LOX IMVI melanoma): > 17.3 µM
GI50 (HT29 colon): 2.04 µM
TGI (HT29 colon): > 13.4 µM
GI50 (A549 NSCLC): 5.35 µM
TGI (A549 NSCLC): > 15.3 µM
GI50 (HCT-15 colon): 2.93 µM
TGI (HCT-15 colon): > 25 µM
GI50 (OVCAR-8 ovarian): 5.79 µM
TGI (OVCAR-8 ovarian): > 18.8 µM
GI50 (ACHN renal): 10.8 µM
TGI (ACHN renal): > 25 µM
GI50 (NCI/ADR-RES ovarian): 10.5 µM
TGI (NCI/ADR-RES ovarian): > 25 µM
GI50 (RXF 393 renal): 2.05 µM
TGI (RXF 393 renal): 10.9 µM
GI50 (MDA-MB-435): 0.0716 µM
TGI (MDA-MB-435): 0.643 µM
GI50 (OVCAR-3 ovarian): 3.65 µM
TGI (OVCAR-3 ovarian): 10 µM
GI50 (HCC-2998 colon): 11.7 µM
TGI (HCC-2998 colon): > 25 µM
GI50 (NCI-H23 lung): 5.59 µM
TGI (NCI-H23 lung): > 20.8 µM
GI50 (SR leukemia): 0.149 µM
TGI (SR leukemia): > 25 µM
GI50 (BT-549 breast): 8.24 µM
TGI (BT-549 breast): 24.4 µM
GI50 (SNB-75 CNS): 2.53 µM
TGI (SNB-75 CNS): > 14.1 µM
GI50 (CCRF-CEM leukemia): 6.2 µM
TGI (CCRF-CEM leukemia): > 25 µM
GI50 (SN12C renal): 8.43 µM
TGI (SN12C renal): > 25 µM
GI50 (NCI-H226 lung): 5.03 µM
TGI (NCI-H226 lung): > 20.7 µM
GI50 (UO-31 renal): > 25 µM
TGI (UO-31 renal): > 25 µM
GI50 (SF-539 CNS): 5.08 µM
TGI (SF-539 CNS): > 25 µM
GI50 (UACC-62 melanoma): 1.93 µM
TGI (UACC-62 melanoma): 10.1 µM
GI50 (MDA-MB-231 breast): 7.76 µM
TGI (MDA-MB-231 breast): > 25 µM
GI50 (HOP-92 NSCLC): 2.33 µM
TGI (HOP-92 NSCLC): 10.4 µM
GI50 (A498 renal): 3.2 µM
TGI (A498 renal): 17.8 µM
GI50 (T-47D breast): 3.56 µM
TGI (T-47D breast): > 15.6 µM
GI50 (K-562 leukemia): 0.153 µM
TGI (K-562 leukemia): > 25 µM
GI50 (DU-145 prostate): 4.94 µM
TGI (DU-145 prostate): > 15.4 µM
GI50 (MOLT-4 leukemia): 10.4 µM
TGI (MOLT-4 leukemia): > 25 µM
GI50 (SW-620 colon): 3.05 µM
TGI (SW-620 colon): 12.1 µM
GI50 (HS 578T breast): 1.41 µM
TGI (HS 578T breast): 19.2 µM
GI50 (MALME-3M melanoma): 2.14 µM
TGI (MALME-3M melanoma): 11.1 µM
GI50 (RPMI-8226 leukemia): 12.5 µM
TGI (RPMI-8226 leukemia): > 25 µM
GI50 (IGROV1 ovarian): 5.37 µM
TGI (IGROV1 ovarian): > 25 µM
GI50 (SK-MEL-5 melanoma): 1.29 µM
TGI (SK-MEL-5 melanoma): 7.15 µM
GI50 (HL-60(TB) leukemia): 2.79 µM
TGI (HL-60(TB) leukemia): > 16.4 µM
GI50 (SF-268 CNS): 4.33 µM
TGI (SF-268 CNS): 15.9 µM
GI50 (NCI-H522 lung): 0.921 µM
TGI (NCI-H522 lung): 14.8 µM
GI50 (786-0 renal): 7 µM
TGI (786-0 renal): > 25 µM
GI50 (HCT-116 colon): 3.39 µM
TGI (HCT-116 colon): > 14.9 µM
GI50 (SK-OV-3 ovarian): 4.99 µM
TGI (SK-OV-3 ovarian): 11.5 µM
GI50 (MCF7 breast): 0.654 µM
TGI (MCF7 breast): > 6.24 µM
